In US20220135564A1, “DEUTERATED MITRAGYNINE ANALOGS AS SAFER OPIOID MODULATORS IN THE MITRAGYNINE CLASS” (The Trustees of Columbia University in the City of New York, priority 2019, published 2022):

Columns and labels:
HLM metabolite formation = details: 2 μM, 37° C., over 40 minutes
Protocol: HLM Metabolite Formation. Pooled HLM from 50 adult male and female donors (XenoTech H0630, lot 1610016) were used. Microsomal incubations of mitragynine and 3-DM were carried out in 96-well plates in 5 aliquots of 40 μL each (one for each time point). Liver microsomal incubation medium contained PBS (100 mM, pH 7.4), MgCl2 (3.3 mM), NADPH (3 mM), glucose-6-phosphate (5.3 mM), glucose-6-phosphate dehydrogenase (0.67 units/mL) with 0.42 mg of liver microsomal protein per ml. Control incubations were performed replacing the NADPH-cofactor system with PBS. Test compounds (2 μM, final solvent concentration 1.6%) were incubated with microsomes at 37° C., shaking at 100 rpm. Incubations were performed in duplicate. Five time points over 40 minutes were analyzed. The reactions were stopped by adding 8 volumes of 90% acetonitrile-water to incubation aliquots, followed by protein sedimentation by centrifugation at 5500 rpm for 3 minutes. Supernatants were analyzed for parent compound remaining and metabolites DHM (both mitragynine and 3-DM incubations), 7-OH (mitragynine incubations), and 3-d-7-OH (3-DM incubations), using a fit-for-purpose liquid chromatography-tandem mass spectrometry (LC-MS/MS) method, with authentic samples of each analyte used for calibration and identification.

[1] = Mouse brain homogenate (MBH) stability and metabolite formation; format: in vitro ADME; details: 2 μM, 37° C., over 120 minutes
Protocol: MBH Preparation. Male BALB/c mice (12-14 weeks old) were housed in polypropylene cages with free access to standard commercial food pellets and tap water. Animals were sacrificed by cervical dislocation immediately prior to brain homogenate preparation. Brains from 10 mice were fragmented into small pieces and homogenized in ice-cold artificial cerebrospinal fluid solution (ACSF: 126 mM NaCl, 2.68 mM KCl, 1 mM Na2HPO4, 0.88 mM MgSO4, 22 mM NaHCO3, 1.45 mM CaCl2, 10 mM HEPES, 11 mM D-glucose, pH 7.4) using a TH-01 OMNI homogenizer. Samples were centrifuged at 1500×g for 10 minutes. Supernatants were decanted and collected. Total protein concentration was determined by Bradford assay and equaled 17.7 mg/mL. The obtained brain homogenate was flash-frozen in liquid nitrogen. Aliquots were stored at −70° C. until use.
MBH Stability and Metabolite Formation. […] The incubation medium consisted of artificial cerebrospinal fluid solution (ACSF: 126 mM NaCl, 2.68 mM KCl, 1 mM Na2HPO4, 0.88 mM MgSO4, 22 mM NaHCO3, 1.45 mM CaCl2, 10 mM HEPES, 11 mM D-glucose, pH 7.4) with 2 mg of brain protein per mL. Test compounds (2 μM, final solvent concentration 1%) were incubated with brain homogenate at 37° C., shaking at 100 rpm. Incubations were performed in duplicate. Six time points over 120 minutes were analyzed.

[2] = Pharmacokinetics in C57BL/6 mice, plasma and brain metabolite concentrations; details: male C57BL/6 mice, 10 mg/kg s.c., 0.083-24 h
Protocol: Animals. Healthy male C57BL/6 mice (8-12 weeks old) weighing between 19 to 28 g were procured from Global, India. Four mice were housed in each cage. Temperature and humidity were maintained at 22±3° C. and 30-70%, respectively and illumination was controlled on a 12-h light/dark cycle. Temperature and humidity were recorded by an auto-controlled data logger system. All animals were provided a laboratory rodent diet (Envigo Research Private Ltd, Hyderabad, India) and reverse osmosis water treated with ultraviolet light was provided ad libitum.
Drugs. Mitragynine and 3-DM were dissolved in normal saline made slightly acidic (˜pH 3) with 1M aqueous HCl. Drugs were administered subcutaneously at a volume of 10 mL/kg body weight and a dose of 10 mg/kg.
Pharmacokinetics. Blood samples (approximately 60 μL) were collected under light isoflurane anesthesia from the retro orbital plexus at 0.083, 0.25, 0.5, 1, 2, 4, 8 and 24 h (4 animals per time point). Plasma samples were separated by centrifugation of whole blood and stored below −70° C. until bioanalysis. Immediately after collection of blood, mice were euthanized and brain samples were collected at 0.083, 0.25, 0.5, 1, 2, 4, 8 and 24 h (4 animals per time point). Brain samples were homogenized using ice-cold phosphate buffered saline (pH 7.4) and homogenates were stored below −70° C. until analysis. Total homogenate volume was three times the tissue weight. Aliquots (25 μL) of each study sample (dilution factor applied for several samples) or spiked calibration standard were added to individual micro-centrifuge tubes followed by 100 μL of internal standard solution prepared in acetonitrile (Glipizide, 500 ng/mL; except for blank, where 100 μL of acetonitrile was added). Samples were vortexed for 5 minutes and then centrifuged for 5 minutes at a speed of 4000 rpm at 4° C. Following centrifugation, supernatants were analyzed for metabolites DHM (both mitragynine and 3-DM treatment) and 7-OH (mitragynine treatment) or 3-d-7-OH (3-DM treatment), using a fit-for-purpose liquid chromatography-tandem mass spectrometry (LC-MS/MS) method, with authentic samples of each analyte used for calibration and identification.

[3] = MS9 metabolite formation (M1, M4, M6) from mitragynine and 3-DM; format: in vitro ADME, mouse; details: 2 μM, 37° C., over 60 minutes, MS peak area, compared to mitragynine
Protocol: MS9 Metabolite Formation. Liver S9 fraction pooled from male CD-1 mice was used. […] Control incubations were performed replacing the cofactor system with phosphate buffer. […] Incubations were performed in duplicate. Five time points over 60 minutes were analyzed. […] Supernatants were analyzed for remaining parent compound and metabolites by liquid chromatography-tandem mass spectrometry (LC-MS/MS).

Male Sprague-Dawley rats = test: Rat tail-flick assay (analgesic activity); format: in vivo; details: oral gavage, 50° C. hot-water bath, 30 minutes after administration
Protocol: Animals. Male Sprague-Dawley rats, aged 7-8 weeks, were used in experiments. Animals were housed under controlled temperatures and 12-hour light/dark cycles (lights on at 06:00-18:00 h), with ad libitum food and water. The study was approved by the Institutional Animal Care and Use Committee (IACUC) at WuXi AppTec (Shanghai). WuXi's animal facilities and IACUC are fully accredited by the Association for Assessment and Accreditation of Laboratory Animal Care International (AAALAC). All efforts were made to minimize animal suffering.
Drugs and Drug Administration. Drugs were prepared as described above and administered by oral gavage at a volume of 5 mL/kg in de-ionized water acidified with acetic acid.
Tail-Flick. Analgesic activity was assessed in the tail-flick assay 30 minutes (peak effect) after administration of vehicle and each dose of drug (n=8 per treatment). Animals were tested for their latency to withdraw their tails from a hot water bath maintained at 50° C. with a room temperature of 22° C. A cutoff time of 7 seconds was used to prevent tissue damage. Data were analyzed as percent maximal effect, % MPE, which was calculated according to the formula: % MPE=[(observed latency−vehicle latency)/(maximal latency−vehicle latency)]×100. Dose-response curves were fit by nonlinear regression (GraphPad Prism, La Jolla, Calif.).

[4] = Pharmacokinetics in 129S1 mice, brain metabolite concentrations at 15 minutes; details: male 129S1 mice, 10 mg/kg s.c.
[5] = Stability and metabolite formation in dog plasma; format: in vitro ADME; details: 1 μM, 37° C., over 120 minutes
Protocol: Stability and Metabolite Formation in Dog Plasma. Beagle dog plasma with Na citrate (Innovatine Research, Inc., lot #IBG-NaCitrate-28323) was used in this study. Plasma incubations were carried out in 5 aliquots of 70 μL each (one for each time point), in duplicate. Test compounds (1 μM, final DMSO concentration 1%) were incubated at 37° C. with shaking at 100 rpm. Five time points over 120 minutes were analyzed. The reactions were stopped by adding 400 μL of acetonitrile-methanol mixture (1:1) with subsequent plasma protein sedimentation by centrifugation at 5500 rpm for 5 minutes.

[6] = Simulated gastric fluid (SGF) incubations monitored by NMR; format: physicochemical; details: deuterated SGF, 1.3 mg/mL, room temperature
Protocol: SGF Incubations. Deuterated SGF (to permit direct NMR monitoring of the reactions) was prepared by combining NaCl (10 mg) and 37% DCl in D2O (35 μL) and diluting up to a final volume of 5.0 mL with D2O. Solutions of 7-OH and 3-d-7-OH in deuterated SGF were prepared at a concentration of 1.3 mg/mL containing N-methyl-2-pyrrolidone (NMP) as an internal standard (IS) at a concentration of 3.33 μL/mL and the reaction mixtures were left to stand at room temperature. NMR spectra were recorded on a Bruker 500 MHz instrument at the following time points: 35, 65, 125, 245, 365, and 1440 minutes (relative to time of solution mixing). Chemical shifts were referenced to the D2O residual solvent peak at 4.79 ppm. Decomposition of parent compounds was quantified by the peak area ratio of a doublet at 6.63 ppm (corresponding to 7-OH and 3-d-7-OH) and a singlet at 2.84 ppm (corresponding to IS). These ratios, calculated at each time point, were normalized to the ratio determined at 35 minutes to obtain values as percent remaining (100% at 35 minutes). Concentration of DHM was determined at each time point by comparing the peak areas of a doublet at 6.70 ppm (corresponding to DHM) and a singlet at 2.84 ppm (corresponding to IS) and using the known concentration of internal standard (3.33 μL/mL=34.5 mM). The concentration of DHM formed from 3-d-7-OH was below the lower limit of quantitation of -0.1 mM at the 35-, 65-, and 125-minute time points.

[7] = compared to 7-OH from mitragynine
[8] = 35-1440 minutes, compared to 7-OH

## [2H][C@@]12C[C@H](/C(=C\OC)C(=O)OC)[C@H](CC)CN1CCc1c2[nH]c2cccc(OC)c12 [3-DM, 3-Deuteromitragynine]
HLM metabolite formation; [7]
  formation of 7-hydroxy active metabolite (3-d-7-OH) in HLMs: little effect
HLM metabolite formation; compared to mitragynine
  concentration of toxic metabolite DHM formed in HLMs: greatly attenuated
[1]
  decomposition of parent compound in MBH: attenuated the decomposition
[1]; compared to mitragynine
  formation of DHM in MBH: attenuated formation of DHM
[2]; [7]
  brain concentration of active metabolite 3-d-7-OH: no effect
  plasma concentration of active metabolite 3-d-7-OH: no effect
[2]; compared to mitragynine
  brain concentration of DHM: greatly attenuated
  plasma concentration of DHM: greatly attenuated
[3]
  formation of metabolite M1 in MS9: greatly attenuated
  formation of metabolite M4 in MS9: greatly attenuated
  formation of metabolite M6 in MS9: greatly attenuated
Male Sprague-Dawley rats
  analgesic effect in the tail-flick assay: dose-dependent analgesic effects
[4]; [7]
  brain concentration of 7-hydroxy active metabolite (3-d-7-OH): little effect
[4]; compared to mitragynine
  brain concentration of DHM: greatly attenuated

## CC[C@@H]1CN2CCc3c([nH]c4cccc(OC)c34)[C@@H]2C[C@@H]1/C(=C\OC)C(=O)OC [Mitragynine]
[1]
  decomposition of parent compound in MBH: unstable
Male Sprague-Dawley rats
  analgesic effect in the tail-flick assay: dose-dependent analgesic effects

## CC[C@@H]1CN2CC[C@@]3(O)C(=Nc4cccc(OC)c43)[C@@H]2C[C@@H]1/C(=C\OC)C(=O)OC [7-OH, 7-Hydroxymitragynine, reference compound]
[5]
  decomposition of parent compound in dog plasma: unstable

## [2H][C@@]12C[C@H](/C(=C\OC)C(=O)OC)[C@H](CC)CN1CC[C@@]1(O)C2=Nc2cccc(OC)c21 [3-d-7-OH, 3-Deutero-7-hydroxymitragynine]
[6]; [8]
  decomposition of parent compound in SGF: did not slow decomposition
  formation of toxic metabolite DHM in SGF: greatly attenuated
[6]; 35-, 65-, and 125-minute time points, below lower limit of quantitation
  concentration of DHM formed in SGF: < -100 µM
[5]
  decomposition of parent compound in dog plasma: attenuated the decomposition
[5]; compared to 7-OH
  formation of DHM in dog plasma: attenuated formation of DHM
